Measurements taken from ChEMBL document CHEMBL4261595, “Discovery of 3-(4-sulfamoylnaphthyl)pyrazolo[1,5-a]pyrimidines as potent and selective ALK2 inhibitors” (Bioorg Med Chem Lett, 2018).
Converted amounts (≈) assume the structure as drawn.

Legend:
[1] = physchem; settings: aqueous, pH 7.4
[2] = Permeability of the compound by PAMPA; assay type: ADME; settings: read-out: permeability
[3] = rat, microsomes
[4] = AUC (0 to infinity) in C57BL/6 mouse at 3 mg/kg, iv; assay type: ADME, organism-based; design: dose 3 mg/kg, time infinity, route intravenous; settings: in vivo
[5] = Half life in C57BL/6 mouse at 3 mg/kg, po; assay type: ADME, organism-based; settings: in vivo
[6] = Cmax in C57BL/6 mouse at 3 mg/kg, po; assay type: ADME, organism-based; design: dose 3 mg/kg, route oral; settings: in vivo
[7] = AUC (0 to infinity) in C57BL/6 mouse at 3 mg/kg, po; assay type: ADME, organism-based; design: dose 3 mg/kg, time infinity, route oral; settings: in vivo
[8] = Volume of distribution at steady state in C57BL/6 mouse at 3 mg/kg, iv; assay type: ADME, organism-based; settings: in vivo, read-out: Vdss
[9] = Half life in C57BL/6 mouse at 3 mg/kg, iv; assay type: ADME, organism-based; settings: in vivo
[10] = Oral bioavailability in C57BL/6 mouse at 3 mg/kg; assay type: ADME, organism-based; settings: in vivo
[11] = Clearance in C57BL/6 mouse plasma at 3 mg/kg, iv; assay type: ADME, organism-based

SMILES	solubility [1] [µg/mL]	Papp [2] [×10⁻⁶ cm/s]	t1/2 [3] [min]	further results
NS(=O)(=O)c1ccc(-c2cnn3cc(-c4ccc(OCCN5CCCC5)cc4)cnc23)c2ccccc12	33 (≈ 64.2 µM)	317	> 30	–
CC(c1ccc(-c2cnc3c(-c4ccc(S(N)(=O)=O)c5ccccc45)cnn3c2)cc1)N1CCCC1 (stereo not given)	7 (≈ 14.1 µM)	–	22.8	AUC(0-inf) [4]: 3220 ng·h/mL; half-life [5]: 258 min; Cmax [6]: 67 ng/mL; AUC(0-inf) [7]: 782 ng·h/mL; Vd [8]: 4.6 L/kg; half-life [9]: 210 min; bioavailability [10]: 24%; clearance [11]: 16 mL/min/kg
NC1(c2ccc(-c3cnc4c(-c5ccc(S(N)(=O)=O)c6ccccc56)cnn4c3)cc2)CCC1	< 1	–	–	–
NS(=O)(=O)c1ccc(-c2cnn3cc(-c4ccc(C5CCNCC5)cc4)cnc23)c2ccccc12	< 1	78.6	> 30	–
CC(C)(CN1CCCCC1)Oc1ccc(-c2cnc3c(-c4ccc(S(N)(=O)=O)c5ccccc45)cnn3c2)cc1	< 1	–	6.1	–
CC(N)c1ccc(-c2cnc3c(-c4ccc(S(N)(=O)=O)c5ccccc45)cnn3c2)cc1 (stereo not given)	7.6 (≈ 17.1 µM)	–	–	–
NS(=O)(=O)c1ccc(-c2cnn3cc(-c4ccc(N5CCNCC5)nc4)cnc23)c2ccccc12	1.4 (≈ 2.88 µM)	8.3	> 30	–
NS(=O)(=O)c1ccc(-c2cnn3cc(-c4ccc(OCCN5CCCCC5)nc4)cnc23)c2ccccc12	< 1	365	20.9	–
CC(C)(N)c1ccc(-c2cnc3c(-c4ccc(S(N)(=O)=O)c5ccccc45)cnn3c2)cc1	10.6 (≈ 23.2 µM)	9.4	> 30	–
NS(=O)(=O)c1ccc(-c2cnn3cc(-c4ccc(CN5CCCC5)cc4)cnc23)c2ccccc12	8 (≈ 16.5 µM)	467	21.9	–
CN(C)CCOc1ccc(-c2cnc3c(-c4ccc(S(N)(=O)=O)c5ccccc45)cnn3c2)cn1	< 1	8.8	9.4	–
